In one series the target is PI-3 kinase γ (Homo sapiens, UniProt P48736). Briefly: PI3Kγ inhibitory activity, PI3-kinase HTRF assay (Millipore). The format is biochemical. The conditions noted are these: 0.5 h; compound 50 μM; read-out: Inhibition ratio % (50 μM). As to the method:
(Method) The PI3Kγ inhibitory activity of a compound was evaluated using PI3-kinase HTRF™ assay (Millipore) according to the following procedure.
To each well of a testing plate was added 5 μL of a compound solution comprising 10% DMSO (200 μM as the concentration of the compound), 5 μL of 40 μM phosphatidylinositol (4,5)-bisphosphate/20 mM MgCl2/10 mM DTT, and 5 μL of 80 μg/mL PI-3 kinase γ/10 mM MgCl2/5 mM DTT, and then stood for 10 minutes.
Then, 5 μL of 40 μM ATP/10 mM MgCl2/5 mM DTT was added thereto. After reacting for 30 minutes at room temperature, 5 μL of a solution comprising EDTA and biotinylated phosphatidylinositol (3,4,5)-triphosphate was added to quench the reaction.
5 μL of a detection reagent comprising a europium-labeled anti-GST antibody, the GST-tagged PH domain, and allophycocyanin-labeled streptavidin was added thereto. After 18 hours, HTRF (excitation wavelength: 330 nm, measuring wavelengths: 620 nm and 665 nm) was measured.
A value of dividing an amount of fluorescence obtained at the measuring wavelength 665 nm by an amount of fluorescence obtained at 620 nm was defined as an HTRF ratio. The HTRF ratio in the absence of a compound was defined as 100% activity, and the HTRF ratio in the absence of PI-3 kinase γ was defined as 0% activity to calculate an inhibition ratio.

A further series is described as follows: Solubility test. The conditions noted are these: 25 °C, fassgf or other biorelevant, kinetic from dmso stock, artificial intestinal juice pH 6.8, 1% DMSO, 25 degrees Celsius. Format: physicochemical. The protocol: 10 mM compound solution was prepared using DMSO, and then 6 μL of the compound solution was added to 594 μL of artificial intestinal juice in pH 6.8 (to 250 mL of 0.2 mol/L potassium dihydrogen phosphate reagent solution was added 118 mL of 0.2 mol/L NaOH reagent solution and water to provide a final volume of 1000 mL). After standing at 25 degrees Celsius for 16 hours, the mixed solution was filtrated with suction. The filtrate was diluted twice with methanol/water (1/1), and then a concentration in the filtration was measured with HPLC or LC/MS/MS by the absolute calibration method.

Series [1] in a line: Metabolic stability test, pooled human liver microsome. The conditions noted are these: human liver microsome 0.5 mg protein/mL, NADPH, 37 degrees Celsius, 30 minutes. The format is in vitro ADME. The protocol: After a subject compound was reacted for a certain time using a pooled human liver microsome commercially available, a reacted sample and an unreacted sample are compared to calculate a survival ratio, and then the degree of metabolism in the liver was evaluated.
0.2 mL of a buffer solution (50 mmol/L of Tris-HCl in pH 7.4, 150 mmol/L of potassium chloride, and 10 mmol/L of magnesium chloride) containing a human liver microsome of 0.5 mg protein/mL was reacted in the presence of 1 mmol/L NADPH at 37 degrees Celsius for 0 or 30 minutes (oxidative reaction). After reacting, 50 μL of the reaction solution was added to 100 μL of a solution of methanol/acetonitrile (1/1(v/v)), mixed, and then centrifuged at 3000 rpm for 15 minutes. A test compound in the supernatant was quantitated with LC/MS/MS. An amount of the compound remained at a reaction time of 0 minute was defined as 100%, and, based on that, an amount of the test compound remained after the reaction was calculated.

For series [2], the target named is T1, human ether-a-go-go related gene (hERG) channel (Homo sapiens, UniProt Q12809).
T1 construct: expressed in transfected cells; host or cells: HEK293
T1 sequence (Q12809 whole entry): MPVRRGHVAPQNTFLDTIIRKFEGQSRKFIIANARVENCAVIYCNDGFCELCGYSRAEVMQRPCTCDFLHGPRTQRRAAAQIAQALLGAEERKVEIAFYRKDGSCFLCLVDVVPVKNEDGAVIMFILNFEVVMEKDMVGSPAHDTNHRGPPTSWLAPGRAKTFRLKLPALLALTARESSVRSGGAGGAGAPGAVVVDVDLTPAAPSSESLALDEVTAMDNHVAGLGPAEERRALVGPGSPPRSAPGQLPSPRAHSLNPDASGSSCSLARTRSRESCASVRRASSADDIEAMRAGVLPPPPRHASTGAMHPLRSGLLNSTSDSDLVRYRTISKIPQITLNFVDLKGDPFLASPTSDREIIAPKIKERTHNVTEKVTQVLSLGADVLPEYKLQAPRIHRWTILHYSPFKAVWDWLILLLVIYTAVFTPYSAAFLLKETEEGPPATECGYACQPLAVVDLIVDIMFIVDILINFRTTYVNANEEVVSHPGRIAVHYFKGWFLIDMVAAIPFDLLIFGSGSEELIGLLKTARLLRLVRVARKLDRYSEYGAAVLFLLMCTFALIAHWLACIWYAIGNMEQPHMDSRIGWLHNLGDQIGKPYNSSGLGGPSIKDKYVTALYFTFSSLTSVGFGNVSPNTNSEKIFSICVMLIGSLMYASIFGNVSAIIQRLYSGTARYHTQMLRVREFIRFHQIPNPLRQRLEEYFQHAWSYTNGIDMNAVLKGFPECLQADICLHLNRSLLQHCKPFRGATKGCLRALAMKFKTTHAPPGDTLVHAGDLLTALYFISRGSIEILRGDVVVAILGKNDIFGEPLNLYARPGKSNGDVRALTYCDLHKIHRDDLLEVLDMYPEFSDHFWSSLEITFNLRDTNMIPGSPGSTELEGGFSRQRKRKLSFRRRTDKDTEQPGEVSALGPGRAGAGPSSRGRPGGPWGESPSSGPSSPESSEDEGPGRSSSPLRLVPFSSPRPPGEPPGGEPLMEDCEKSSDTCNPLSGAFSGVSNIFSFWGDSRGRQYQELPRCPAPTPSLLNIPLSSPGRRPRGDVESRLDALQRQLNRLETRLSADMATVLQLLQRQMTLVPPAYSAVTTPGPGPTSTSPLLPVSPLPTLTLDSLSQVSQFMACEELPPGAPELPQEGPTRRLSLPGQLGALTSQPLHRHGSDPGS
The experiment in a line: hERG test, whole-cell patch-clamp in HEK293 cells. The format is cell-based. The conditions noted are these: HEK293 cells expressing hERG; concentration not given. The source says: For the purpose of a risk evaluation of QT interval extension of electrocardiogram, using the HEK293 cell that was made express human ether-a-go-go related gene (hERG) channel, the activity on delayed rectification K^+ current (IKr) playing an important role in a cardiac ventricle repolarization process was examined.
Using an automatic patch-clamp system (PatchXpress 7000A, Axon Instruments Inc.), by a whole-cell patch-clamp method, after the cell was maintained at a membrane potential of −80 mV, IKr induced on giving depolarizing stimulation of +50 mV for 2 seconds and further repolarizing stimulation of −50 mV for 2 seconds was recorded. After generated current became stable, extracellular fluid (NaCl: 137 mmol/L, KCl: 4 mmol/L, CaCl2.2H2O: 1.8 mmol/L, MgCl2.6H2O: 1 mmol/L, glucose: 10 mmol/L, HEPES (4-(2-hydroxyethyl)-1-piperazineethanesulfonic acid): 10 mmol/L, pH=7.4) dissolving a test substance at an intended concentration was applied to the cell for 10 minutes under room temperature condition. From the IKr obtained, using an analysis soft (DataXpress ver. 1, Molecular Devices Corporation), a current value in a membrane potential maintained was used as a standard, and the absolute value of the maximum tail current was measured. Moreover, an inhibition ratio for the maximum tail current prior to the application of the test substance was calculated, and then compared with a group of media-application (0.1% dimethylsulfoxide solution) to evaluate influence of the test substance on IKr.

Where only a bound is given, the exact number is not on record here.

Chain of PI-3 kinase γ (P48736 whole entry): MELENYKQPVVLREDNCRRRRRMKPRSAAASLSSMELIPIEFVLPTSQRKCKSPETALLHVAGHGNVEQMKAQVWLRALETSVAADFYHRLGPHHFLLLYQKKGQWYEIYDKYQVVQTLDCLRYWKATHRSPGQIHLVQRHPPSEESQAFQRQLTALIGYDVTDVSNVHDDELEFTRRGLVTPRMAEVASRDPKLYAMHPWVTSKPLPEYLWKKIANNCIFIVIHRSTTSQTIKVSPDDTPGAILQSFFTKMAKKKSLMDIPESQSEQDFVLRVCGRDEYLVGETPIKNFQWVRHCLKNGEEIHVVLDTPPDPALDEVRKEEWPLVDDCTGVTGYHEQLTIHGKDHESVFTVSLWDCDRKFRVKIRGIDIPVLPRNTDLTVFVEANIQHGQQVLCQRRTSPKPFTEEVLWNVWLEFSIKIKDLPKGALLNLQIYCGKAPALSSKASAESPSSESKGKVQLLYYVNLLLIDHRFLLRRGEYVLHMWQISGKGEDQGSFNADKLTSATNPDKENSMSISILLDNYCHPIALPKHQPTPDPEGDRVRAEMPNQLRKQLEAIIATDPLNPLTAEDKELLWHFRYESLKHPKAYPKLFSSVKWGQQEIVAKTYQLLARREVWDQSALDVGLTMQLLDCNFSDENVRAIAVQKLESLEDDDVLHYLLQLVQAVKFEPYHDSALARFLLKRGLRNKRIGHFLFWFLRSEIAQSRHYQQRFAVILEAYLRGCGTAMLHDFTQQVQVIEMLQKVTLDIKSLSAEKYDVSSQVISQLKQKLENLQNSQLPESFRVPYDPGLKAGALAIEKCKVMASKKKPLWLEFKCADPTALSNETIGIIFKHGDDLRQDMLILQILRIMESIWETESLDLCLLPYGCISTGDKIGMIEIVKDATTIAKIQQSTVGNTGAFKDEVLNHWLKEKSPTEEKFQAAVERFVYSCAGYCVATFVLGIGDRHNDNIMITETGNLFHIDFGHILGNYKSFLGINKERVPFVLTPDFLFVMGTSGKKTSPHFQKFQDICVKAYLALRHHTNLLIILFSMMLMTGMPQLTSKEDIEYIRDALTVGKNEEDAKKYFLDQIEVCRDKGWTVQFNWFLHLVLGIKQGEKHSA

For `CNC(=O)Nc1cn2nc(-c3cccc(C(=O)O)c3)ccc2n1` [Compound I-28], the inhibition at 50 µM at PI-3 kinase γ was 89%. In addition, in the series “Solubility test”, the solubility at 16 h is more than 50 µM. The “Amount of the test compound remained after the reaction” value (“Amount of the test compound remained” below) in series [1] is on record as 98.6%.

Regarding `CNC(=O)Nc1cn2nc(-c3cccc(C(N)=O)c3)ccc2n1` [Compound I-29], the inhibition at 50 µM on PI-3 kinase γ came out at 84%. Also, the “Amount of the test compound remained” value in series [1] stood at 98.8%. With `CNC(=O)Nc1cn2nc(-c3cccc(S(C)(=O)=O)c3)ccc2n1` [Compound I-75], the inhibition at 50 µM at PI-3 kinase γ turned out to be 84%. This molecule also returned a solubility at 16 h in “Solubility test” of more than 50 µM. `COc1cccc(-c2ccc3nc(NC(=O)Nc4ccccc4)cn3n2)c1` [Compound I-118]: the inhibition at 50 µM at PI-3 kinase γ turned out to be 64%. Moreover, the “Amount of the test compound remained” value in series [1] turned out to be 95.9%. As to `CNC(=O)Nc1cn2nc(-c3cccc(CCCO)c3)ccc2n1` [Compound I-136], on PI-3 kinase γ, the inhibition at 50 µM was determined as 79%. Also, in the series “Solubility test”, the solubility at 16 h is more than 50 µM. For the molecule `CNC(=O)Nc1cn2nc(-c3cccc(C(=O)N4CCCC4)c3)ccc2n1` [Compound I-137], at PI-3 kinase γ, the inhibition at 50 µM stood at 81%. Also, the “Inhibition ratio for the maximum tail current (IKr)” value (from here on “Inhibition ratio”) in series [2] is reported as 8.4%.

With `CNC(=O)Nc1cn2nc(-c3cccc(N(C)C)c3)ccc2n1` [Compound I-143], the inhibition at 50 µM on PI-3 kinase γ stood at 102%. In series [2], the “Inhibition ratio” value is reported as 7.8%.

Turning to `COc1cccc(-c2ccc3nc(NC(=O)c4ccccc4Cl)cn3n2)c1` [Compound I-163], on PI-3 kinase γ, the inhibition at 50 µM is 58%. Besides, in series [1], the “Amount of the test compound remained” value amounted to 98.1%. Consider `CCC(C)C(=O)Nc1cn2nc(-c3cccc(OC)c3)ccc2n1` (stereo not shown) [Compound I-182], for which the inhibition at 50 µM at PI-3 kinase γ is 98%. Further, the “Inhibition ratio” value in series [2] is listed as 9.3%.

As to `CCOC(=O)c1nc[nH]c1C(=O)Nc1cn2nc(-c3cccc(OC)c3)ccc2n1` [Compound I-208], in series [2], the “Inhibition ratio” value was determined as 0.5%. For `COc1cccc(-c2ccc3nc(NC(=O)CCCn4cncn4)cn3n2)c1` [Compound I-210], at PI-3 kinase γ, the inhibition at 50 µM stood at 85%. Further, in series [1], the “Amount of the test compound remained” value was determined as 97%.

In the case of `COc1cccc(-c2ccc3nc(NC(=O)NCC(=O)OC(C)(C)C)cn3n2)c1` [Compound I-248], the inhibition at 50 µM on PI-3 kinase γ stood at 71%. Besides, in series [2], the “Inhibition ratio” value is recorded as 6.7%.

As to `COc1cccc(-c2ccc3nc(NC(=O)NCc4ccoc4)cn3n2)c1` [Compound I-254], the inhibition at 50 µM on PI-3 kinase γ was 77%.

Take `COc1cccc(-c2ccc3nc(NC(=O)NCc4nccs4)cn3n2)c1` [Compound I-255]: the inhibition at 50 µM at PI-3 kinase γ stood at 75%.

On to `CCOC(=O)CCCNC(=O)Nc1cn2nc(-c3cccc(OC)c3)ccc2n1` [Compound I-257], for which the inhibition at 50 µM on PI-3 kinase γ stood at 83%. In the case of `COc1cccc(-c2ccc3nc(NC(=O)NCC4COCCO4)cn3n2)c1` (stereo not shown) [Compound I-258], the inhibition at 50 µM at PI-3 kinase γ worked out at 76%. The same measure, in the same setting: under `CCOC(=O)CCNC(=O)Nc1cn2nc(-c3cccc(OC)c3)ccc2n1` [Compound I-259] stands 68%; under `COC[C@H]1CCCN1C(=O)Nc1cn2nc(-c3cccc(OC)c3)ccc2n1` [Compound I-261], 59%; under `COc1cccc(-c2ccc3nc(NC(=O)NCCNC(=O)OC(C)(C)C)cn3n2)c1` [Compound I-263], 71%. In the case of `COc1cccc(-c2ccc3nc(NC(=O)NCCN)cn3n2)c1` [Compound I-264], on PI-3 kinase γ, the inhibition at 50 µM stood at 67%. Same read-out and setting: under `COc1cccc(-c2ccc3nc(NC(=O)NCCC(=O)N4CCOCC4)cn3n2)c1` [Compound I-268] stands 62%; under `COc1cccc(-c2ccc3nc(NC(=O)NN4CCc5ccccc54)cn3n2)c1` [Compound I-269], 64%.

Consider `COc1cccc(-c2ccc3nc(NC(=O)NCCO)cn3n2)c1` [Compound I-270], for which the inhibition at 50 µM on PI-3 kinase γ amounted to 82%. Also, the solubility at 16 h in the series “Solubility test” was more than 50 µM. Turning to `COc1cccc(-c2ccc3nc(NC(=O)NC4CCN(S(=O)(=O)C(C)C)CC4)cn3n2)c1` [Compound I-271], the inhibition at 50 µM at PI-3 kinase γ was 53%. The same measure, in the same setting: as for `COc1cccc(-c2ccc3nc(NC(=O)NCCC(=O)NC(C)(C)C)cn3n2)c1` [Compound I-272], the figure is 61%; as for `COc1cccc(-c2ccc3nc(NC(=O)NCCC(=O)OC(C)(C)C)cn3n2)c1` [Compound I-273], 85%. On the same count and under the same terms, under `COc1cccc(-c2ccc3nc(NC(=O)NN(C)C)cn3n2)c1` [Compound I-276] stands 87%; under `COc1cccc(-c2ccc3nc(NC(=O)NCCCN)cn3n2)c1` [Compound I-278], 81%; under `COc1cccc(-c2ccc3nc(NC(=O)NCCC(N)=O)cn3n2)c1` [Compound I-279], 83%. Take `CNC(=O)Nc1cn2nc(C(=O)c3ccccc3)ccc2n1` [Compound I-280]: the inhibition at 50 µM at PI-3 kinase γ amounted to 92%. Besides, the “Inhibition ratio” value in series [2] amounted to 5.8%. On to `CNC(=O)Nc1cn2nc(Sc3cccc(OC)c3)ccc2n1` [Compound I-281], for which the inhibition at 50 µM on PI-3 kinase γ stood at 78%. On to `CNC(=O)Nc1cn2nc(Cc3cccc(OC)c3)ccc2n1` [Compound I-282], for which, on PI-3 kinase γ, the inhibition at 50 µM was 78%. Still for that read-out and setting: under `COc1cccc(-c2ccc3nc(Nc4cccc(C(C)=O)c4)cn3n2)c1` [Compound I-283] stands 86%; under `COc1cccc(-c2ccc3nc(Nc4cccc(CO)c4)cn3n2)c1` [Compound I-284], 111%; under `COC(=O)c1cccc(Nc2cn3nc(-c4cccc(OC)c4)ccc3n2)c1` [Compound I-285], 96%.

As for `COc1cccc(-c2ccc3nc(Nc4cccc([N+](=O)[O-])c4)cn3n2)c1` [Compound I-286], on PI-3 kinase γ, the inhibition at 50 µM was 87%. With `COc1ccc(Nc2cn3nc(-c4cccc(OC)c4)ccc3n2)cc1` [Compound I-287], the inhibition at 50 µM on PI-3 kinase γ was found to be 101%. Still for that read-out and setting: under `COc1cccc(-c2ccc3nc(Nc4ccc(OCCO)cc4)cn3n2)c1` [Compound I-288] stands 107%; under `COc1cccc(-c2ccc3nc(Nc4ccc(CO)cn4)cn3n2)c1` [Compound I-289], 127%; under `COc1cccc(-c2ccc3nc(Nc4cccc(O)n4)cn3n2)c1` [Compound I-290], 92%. Turning to `COc1cccc(-c2ccc3nc(NC(C)=O)cn3n2)c1` [Compound I-291], the inhibition at 50 µM on PI-3 kinase γ came to 74%.
